Source: patent US10080365B2, “Use of strobilurin type compounds for combating phytopathogenic fungi resistant to Qo inhibitors” (BASF SE, priority 2011, dated 2018)
pIC50: −log10 of the molar value.

Legend:
[1] = test system: Septoria tritici (Qo-inhibitor sensitive, wild-type); assay: Microtiter test, Septoria tritici Qo-inhibitor sensitive wild-type (Use Example 1); format: cell-based; conditions: Zymoseptoria tritici, turbidity at 620 nm, read-out: Sensitive Septoria tritici isolate (wild type) (S-IC50)
Protocol: (§1) The active substances were formulated separately as a stock solution in dimethyl sulfoxide (DMSO) at a concentration of 10 000 ppm.
(§2) Activity against the Septoria blotch pathogen caused by Septoria tritici in the microtiter test
(§3) Fungal strains used: • a) Septoria tritici (Qo-inhibitor sensitive, wild-type) • b) Septoria tritici (Qo-inhibitor-resistant, G143A mutant)
(§4) 100 ml 2% Malt extract in water at pH6.8 were inoculated with microspores from 2 week old cultures grown on 2% malt extract+2% agar in Petri dishes and incubated for 3 days on a rotary shaker at 24° C. und 150 rpm. The culture was harvested, glycerol was added (15% (v/v) and kept frozen at −20° C. in aliquots of 1 ml.
(§5) 1 ml stock suspension was thawed and suspended into 800 ml of 2% malt extract in water at pH 6.8. Compounds were diluted from stock solution in (dimethylsulfoxide) DMSO in 10 steps. The compound solutions were diluted 1/5 with sterile deionized water before use. 5 μl of the compound solutions were transferred into empty microplates. The plates were then filled with 195 μl of the microspore suspension of each strain.
(§6) The antifungal activity was determined by measuring the turbidity of a culture in 96-well microplates in the presence of test compounds. Fungal growth was measured by recording the optical density at 620 nm every 15 h for 150 h. The relative antifungal activity was calculated by comparison of the effect of the test compounds with the effect of a DMSO control and a standard fungicide.
(§7) IC50-values (concentration of test compound resulting in 50% inhibition of fungal growth) were calculated from the resulting dose-response for each compound and strain. The initial concentration of the test compounds and the 10 steps of dilution (1:4 each) allowed IC50-values from 0.001 to 100 μmol/l (μM) to be assessed.

[2] = test system: Septoria tritici (Qo-inhibitor-resistant, G143A mutant); assay: Microtiter test, Septoria tritici Qo-inhibitor-resistant G143A mutant (Use Example 1); format: cell-based; conditions: for pIC50: Zymoseptoria tritici, read-out: Resistant Septoria tritici isolate (G143A mutation) (R-IC50)
Protocol: as §1, §2, §3, §4, §5, §6, §7

Septoria tritici [3] = assay: Field Trial 1: efficacy against Septoria tritici on winter wheat (Böhl-Iggelheim); format: in vivo, Septoria tritici on winter wheat (cv. Riband); conditions: 200 g a.i./ha; for Disease (%) 20 DAA: applied at GS 32 and 21 days later at GS 39, natural infection, 20 days after last treatment; for Disease (%) 33 DAA: applied at GS 32 and GS 39, 33 days after last treatment; for Disease (%) 46 DAA: applied at GS 32 and GS 39, 46 days after last treatment; for control of Qo inhibitor-resistant Septoria tritici isolates, in words: commercial dose level
Protocol: (§8) Compound I-6 was used as 50 g/l EC formulation. Pyraclostrobin was used as commercial product HEADLINE.
The trial was conducted under field conditions in Böhl-Iggelheim, Rhineland-palatinate, Germany. Seeds of winter wheat (cv. Riband) were planted and grown under standard conditions with adequate supply of water and nutrients. At growing stage GS 32 (Apr. 14, 2011), a first compound treatment (200 g a.i. per ha) was made with a water volume of 400 L/ha, which was repeated 21 days later at growing stage GS 39. No further fungicide treatments were applied. Infection with fungal pathogens (e.g. Septoria tritici) occurred naturally. The evaluation of the disease incidences for Septoria tritici 20, 33 and 46 days after the last treatment (DAA) are shown in table Ill. In the last row, the evaluation of the percentage of Qo inhibitor-resistant Septoria tritici isolates with the G143A mutation after the treatments is given.

Septoria tritici [4] = assay: Field Trial 2: efficacy against Septoria tritici on winter wheat (Limburgerhof); format: in vivo, Septoria tritici on winter wheat (cv. Riband); conditions: 200 g a.i./ha; for Disease (%) 19 DAA: applied at GS 33 and 26 days later at GS 39, natural infection, 19 days after last treatment; for Disease (%) 34 DAA: applied at GS 33 and GS 39, 34 days after last treatment; for antifungal activity against Qo inhibitor-resistant Septoria tritici, in words: commercial dose level
Protocol: as §8
This trial was conducted under field conditions in Limburgerhof, Rhineland-Palatinate, Germany. Seeds of winter wheat (cv. Riband) were planted and grown under standard conditions with adequate supply of water and nutrients. At growing stage GS 33 (Apr. 8, 2011), a first compound treatment (200 g a.i per ha) was made with a water volume of 400 L/ha, which was repeated 26 days later at growing stage GS 39. No further fungicide treatments were applied. Infection with fungal pathogens (e.g. Septoria tritici) occurred naturally. The evaluation of the disease incidences for Septoria tritici 19 and 34 days after the last treatment (DAA) are shown in Table IV. In the last row, the evaluation of the percentage of Qo inhibitor-resistant Septoria tritici isolates with the G143A mutation after the treatments is given.

[5] = test system: Septoria tritici isolates containing the G143A in the cytochrome b gene; assay: Glass house Trial 3: control of leaf blotch on wheat caused by two Septoria tritici isolates containing G143A; format: in vivo; conditions: % diseased leaf area after about 28 days
Protocol: The spray solutions were prepared in several steps:
The stock solution was prepared as follows: 1.26 ml of a 1:1 mixture of cyclohexanone and dimethylsulfoxide was added to 8.4 mg of active ingredient. Next, 40.74 ml of a mixture of water, acetone (10%), the emulsifier Wettol (0.1%) and the wetting agent Silwet (0.05%) was added. This stock solution was then further diluted with the described solvent-emulsifier-water mixture to the desired concentrations.
Trial 3: Control of Leaf Blotch on Wheat Caused by Caused by Two Septoria tritici Isolates Containing the G143A in the Cytochrome b Gene for their Cytochrome Bc1 Complex
Wheat plants were grown in pots. These plants were sprayed to run-off with an aqueous suspension, containing the desired concentration of active ingredient. The next day, the treated plants were inoculated with an aqueous suspension of Septoria tritici. After inoculation, the trial plants were covered with a lid and immediately transferred to a chamber with a relative humidity of about 83 to 85% and 19.5 to 20° C. After 4 days the lid was removed. Altogether, the trial plants were cultivated for about 28 days in that greenhouse chamber. The extent of fungal attack on the leaves was then visually assessed as % diseased leaf area.

[6] = Resistant Septoria tritici isolate 1 (G143A mutation), 12.5 ppm
[7] = Resistant Septoria tritici isolate 1 (G143A mutation), 25 ppm
[8] = Resistant Septoria tritici isolate 1 (G143A mutation), 50 ppm
[9] = Resistant Septoria tritici isolate 1 (G143A mutation), 100 ppm
[10] = Resistant Septoria tritici isolate 1 (G143A mutation), 200 ppm
[11] = Resistant Septoria tritici isolate 2 (G143A mutation), 12.5 ppm
[12] = Resistant Septoria tritici isolate 2 (G143A mutation), 25 ppm
[13] = Resistant Septoria tritici isolate 2 (G143A mutation), 50 ppm
[14] = Resistant Septoria tritici isolate 2 (G143A mutation), 100 ppm
[15] = Resistant Septoria tritici isolate 2 (G143A mutation), 200 ppm

Row | SMILES | pIC50 [1] | pIC50 [2] | Resistance factor RF = R-IC50/S-IC50 [2] | Disease (%) 20 DAA (Septoria tritici [3]) | Disease (%) 33 DAA (Septoria tritici [3]) | Disease (%) 46 DAA (Septoria tritici [3]) | control of Qo inhibitor-resistant Septoria tritici isolates, in words (Septoria tritici [3]) | Disease (%) 19 DAA (Septoria tritici [4]) | Disease (%) 34 DAA (Septoria tritici [4]) | antifungal activity against Qo inhibitor-resistant Septoria tritici, in words (Septoria tritici [4]) | Disease level (%) [5, 6] | Disease level (%) [5, 7] | Disease level (%) [5, 8] | Disease level (%) [5, 9] | Disease level (%) [5, 10] | Disease level (%) [5, 11] | Disease level (%) [5, 12] | Disease level (%) [5, 13] | Disease level (%) [5, 14] | Disease level (%) [5, 15]
1 | CNC(=O)C(=N/OC)/C(C)=C\COc1ccn(-c2ccc(Cl)cc2)n1 [Compound I-6, (Z)-5-[1-(4-Chloro-phenyl)-1H-pyrazol-3-yloxy]-2-[(E)-methoxyimino]-3-methyl-pent-3-enic acid methyl amide] | 6.47 | 5.08 | 24 | 1% | 6% | 36% | capable to control | 3% | 12% | capable to reduce the infection | 50% | 10% | 3% | 3% | 1% | 20% | 15% | 3% | 3% | 0%
2 | COC(=O)N(OC)c1ccccc1COc1ccn(-c2ccc(Cl)cc2)n1 [Pyraclostrobin, reference compound] | 8.92 | 5.47 | 2882 | 8% | 32% | 93% | insufficient control level | 5% | 28% | only slightly above the untreated control | 100% | 100% | 100% | 90% | 30% | 60% | 60% | 40% | 25% | 15%
